In PubChem BioAssay AID248 (DTP/NCI, 2004):
“And” between values parts separate entries of the source, which are not always exact repeats. Identical values can stand only once. Inconclusive results and toxic doses are left out. Cut-off read from the data, not from the text of the source: active = T/C of 150% or more; inactive = T/C below 125%.

System: L1210 leukemia ip in BDF1 mice, survival T/C
Assay: NCI In Vivo Anticancer Drug Screen. Data for tumor model L1210 Leukemia (intraperitoneal) in B6D2F1 (BDF1) mice
Conditions: endpoint: mean survival time, higher = longer survival
How it was run: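 Each compound was tested against a transplantable tumor grown in mice. The endpoint was survival, with treated animals benchmarked against vehicle controls as a simple ratio.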

[1] = dose: 100.0 mg/kg/injection, schedule: Q04DX002 (ip), vehicle: Klucel (hydroxypropylcellulose) (HPC)
[2] = dose: 200.0 mg/kg/injection, schedule: Q04DX002 (ip), vehicle: Klucel (hydroxypropylcellulose) (HPC)
[3] = dose: 400.0 mg/kg/injection, schedule: Q04DX002 (ip), vehicle: Klucel (hydroxypropylcellulose) (HPC)
[4] = dose: 100.0 mg/kg/injection, schedule: Q01DX001 (ip), vehicle: saline
[5] = dose: 100.0 mg/kg/injection, schedule: Q01DX009 (ip), vehicle: saline with Tween-80
[6] = dose: 100.0 mg/kg/injection, schedule: Q04DX003 (ip), vehicle: saline
[7] = dose: 200.0 mg/kg/injection, schedule: Q01DX001 (ip), vehicle: saline
[8] = dose: 200.0 mg/kg/injection, schedule: Q01DX009 (ip), vehicle: saline with Tween-80
[9] = dose: 200.0 mg/kg/injection, schedule: Q04DX003 (ip), vehicle: saline
[10] = dose: 400.0 mg/kg/injection, schedule: Q01DX001 (ip), vehicle: saline
[11] = dose: 400.0 mg/kg/injection, schedule: Q04DX003 (ip), vehicle: saline
[12] = dose: 100.0 mg/kg/injection, schedule: Q01DX001 (ip), vehicle: carboxymethylcellulose (CMC)
[13] = dose: 200.0 mg/kg/injection, schedule: Q01DX001 (ip), vehicle: carboxymethylcellulose (CMC)
[14] = dose: 400.0 mg/kg/injection, schedule: Q01DX001 (ip), vehicle: carboxymethylcellulose (CMC)
[15] = dose: 50.0 mg/kg/injection, schedule: Q01DX009 (ip), vehicle: Klucel (hydroxypropylcellulose) (HPC)
[16] = dose: 100.0 mg/kg/injection, schedule: Q01DX009 (ip), vehicle: Klucel (hydroxypropylcellulose) (HPC)
[17] = dose: 100.0 mg/kg/injection, schedule: Q04DX003 (ip), vehicle: Klucel (hydroxypropylcellulose) (HPC)
[18] = dose: 200.0 mg/kg/injection, schedule: Q04DX003 (ip), vehicle: Klucel (hydroxypropylcellulose) (HPC)
[19] = dose: 200.0 mg/kg/injection, schedule: Q01DX009 (ip), vehicle: Klucel (hydroxypropylcellulose) (HPC)
[20] = dose: 400.0 mg/kg/injection, schedule: Q01DX009 (ip), vehicle: Klucel (hydroxypropylcellulose) (HPC)
[21] = dose: 400.0 mg/kg/injection, schedule: Q04DX003 (ip), vehicle: Klucel (hydroxypropylcellulose) (HPC)
[22] = dose: 100.0 mg/kg/injection, schedule: Q01DX001 (ip), vehicle: Klucel (hydroxypropylcellulose) (HPC)
[23] = dose: 200.0 mg/kg/injection, schedule: Q01DX001 (ip), vehicle: Klucel (hydroxypropylcellulose) (HPC)
[24] = dose: 400.0 mg/kg/injection, schedule: Q01DX001 (ip), vehicle: Klucel (hydroxypropylcellulose) (HPC)
[25] = dose: 50.0 mg/kg/injection, schedule: Q01DX001 (ip), vehicle: saline

Measured: T/C

COc1ccc(/C(C)=N\NC(N)=O)cc1
inactive: dose: 50.0 mg/kg/injection, schedule: Q04DX002 (ip), vehicle: Klucel (hydroxypropylcellulose) (HPC) 111 % of control | [1] 105 % of control | [2] 94 % of control | [3] 99 % of control

COc1ccc(C=NCCN=Cc2ccc(OC)c(OC)c2)cc1OC
inactive: [4] 100 % of control | [5] 101 % of control | [6] 92 % of control | [7] 104 % of control | [8] 95 % of control | [9] 87 % of control | [10] 102 % of control | dose: 400.0 mg/kg/injection, schedule: Q01DX009 (ip), vehicle: saline with Tween-80 95 % of control | [11] 92 % of control

CCOC(=O)C(Cc1c[nH]c2ccccc12)[N+](=O)[O-] (centres undefined)
inactive: dose: 100.0 mg/kg/injection, schedule: Q04DX003 (sc), vehicle: olive oil, sesame oil, peanut oil 97 % of control | dose: 200.0 mg/kg/injection, schedule: Q04DX003 (sc), vehicle: olive oil, sesame oil, peanut oil 98 % of control | dose: 400.0 mg/kg/injection, schedule: Q04DX003 (sc), vehicle: olive oil, sesame oil, peanut oil 101 % of control

Nc1ccc(C(=O)CC(N)C(=O)O)cc1O (centres undefined)
inactive: [12] 112 % of control | [13] 91 % of control | [14] 100 % of control

C(=N\N1CCN(/N=C/c2ccc(OCc3ccccc3)cc2)CC1)/c1ccc(OCc2ccccc2)cc1
inactive: [4] 102 % of control | [7] 96 % of control | [10] 93 % of control

C#CC[N+]12CN3CN(CN(C3)C1)C2
inactive: [6] 101 % of control | [9] 98 % of control | [11] 102 % of control

COc1ccc(OC)c(/C=N\NC(=O)N/N=C/c2cc(OC)ccc2OC)c1
inactive: dose: 100.0 mg/kg/injection, schedule: Q04DX002 (ip), vehicle: saline with Tween-80 101 % of control | dose: 200.0 mg/kg/injection, schedule: Q04DX002 (ip), vehicle: saline with Tween-80 101 % of control | dose: 400.0 mg/kg/injection, schedule: Q04DX002 (ip), vehicle: saline with Tween-80 95 % of control

Cc1ccc(SC2CC3CC2C2COCC32)cc1 (centres undefined)
inactive: [15] 98 % of control | [16] 98 % of control | [17] 90 % of control | [18] 98 % of control

COC(=O)C1C=C2c3cccc4[nH]cc(c34)CC2N(C)C1 (centres undefined)
inactive: dose: 100.0 mg/kg/injection, schedule: Q01DX009 (ip), vehicle: saline 105 % of control

O=C(c1ccccc1)C1C(c2ccccc2)N1C1CCCCC1 (centres undefined)
inactive: [15] 95 % of control | [16] 97 % of control and 103 % of control | [17] 96 % of control and 100 % of control | [19] 95 % of control and 89 % of control | [18] 93 % of control and 88 % of control | [20] 90 % of control and 91 % of control | [21] 95 % of control and 100 % of control

CS(=O)(=O)Oc1ccc2c(c1)CCC2
inactive: [12] 104 % of control | [13] 101 % of control | [14] 95 % of control

Cc1cc(NC(=O)Nc2cc(F)ccc2F)no1
inactive: [22] 117 % of control | [16] 97 % of control | [1] 94 % of control and 90 % of control | [17] 99 % of control | [23] 106 % of control | [19] 92 % of control and 100 % of control | [2] 94 % of control and 97 % of control | [18] 103 % of control | [24] 101 % of control | [20] 97 % of control and 90 % of control | [3] 94 % of control and 101 % of control | [21] 103 % of control

O=C(Nc1ccc(S(=O)(=O)F)cc1[N+](=O)[O-])c1ccc2ccccc2c1O
inactive: [16] 104 % of control | [19] 96 % of control | [20] 93 % of control

NC(CCl)=NCC12CC3CC(CC(C3)C1)C2
inactive: [1] 98 % of control | [2] 104 % of control and 87 % of control

O=c1[nH]c2ccccc2nc1C(Cl)Cl
inactive: [17] 115 % of control

C=C1C(=O)C2(C)OC2(C)C1C(=O)O (centres undefined)
inactive: dose: 1.25 mg/kg/injection, schedule: Q01DX009 (ip), vehicle: Klucel (hydroxypropylcellulose) (HPC) 94 % of control | dose: 2.5 mg/kg/injection, schedule: Q01DX009 (ip), vehicle: Klucel (hydroxypropylcellulose) (HPC) 100 % of control | dose: 5.0 mg/kg/injection, schedule: Q01DX009 (ip), vehicle: Klucel (hydroxypropylcellulose) (HPC) 105 % of control | dose: 10.0 mg/kg/injection, schedule: Q01DX009 (ip), vehicle: Klucel (hydroxypropylcellulose) (HPC) 101 % of control

O=C(Nc1ccc(Cl)cc1Cl)Oc1ccc(F)cc1
inactive: dose: 50.0 mg/kg/injection, schedule: Q01DX009 (ip), vehicle: saline with Tween-80 94 % of control | [5] 94 % of control | [8] 102 % of control

C/C(Cc1c[nH]c2ccccc12)=N/NC(N)=S
inactive: [25] 100 % of control | [4] 100 % of control

CC(=O)c1cccc([N+](=O)[O-])c1O
inactive: [4] 95 % of control | [7] 94 % of control | [10] 91 % of control

N#CCCN(C(=O)COc1ccc(Cl)cc1Cl)C1CCCCC1
inactive: [16] 95 % of control | [17] 95 % of control | [19] 104 % of control | [18] 100 % of control | [20] 95 % of control

O=[N+]([O-])c1ccc(S(=O)(=O)O)c([N+](=O)[O-])c1.[Ag]
inactive: dose: 3.12 mg/kg/injection, schedule: Q01DX009 (ip), vehicle: DMSO 95 % of control | dose: 6.25 mg/kg/injection, schedule: Q01DX009 (ip), vehicle: DMSO 97 % of control | dose: 12.5 mg/kg/injection, schedule: Q01DX009 (ip), vehicle: DMSO 95 % of control | dose: 12.5 mg/kg/injection, schedule: Q01DX009 (ip), vehicle: other 93 % of control | dose: 12.5 mg/kg/injection, schedule: Q04DX003 (ip), vehicle: other 104 % of control | dose: 25.0 mg/kg/injection, schedule: Q04DX003 (ip), vehicle: other 98 % of control | dose: 50.0 mg/kg/injection, schedule: Q04DX003 (ip), vehicle: other 103 % of control

O=P(c1ccco1)(c1ccco1)c1ccco1
inactive: dose: 25.0 mg/kg/injection, schedule: Q04DX003 (ip), vehicle: saline with Tween-80 101 % of control | dose: 50.0 mg/kg/injection, schedule: Q04DX003 (ip), vehicle: saline with Tween-80 95 % of control

CCCCCC(C)(O)CCC (centres undefined)
inactive: [25] 93 % of control | [4] 93 % of control | [7] 93 % of control

Nc1nc(N)c(CCCOc2cccc(Cl)c2Cl)c(N)n1
inactive: dose: 87.5 mg/kg/injection, schedule: Q01DX009 (ip), vehicle: Klucel (hydroxypropylcellulose) (HPC) 95 % of control | dose: 175.0 mg/kg/injection, schedule: Q01DX009 (ip), vehicle: Klucel (hydroxypropylcellulose) (HPC) 88 % of control | dose: 350.0 mg/kg/injection, schedule: Q01DX009 (ip), vehicle: Klucel (hydroxypropylcellulose) (HPC) 106 % of control

CC(=O)NCCOc1ccc(N)cc1
inactive: [6] 104 % of control | [9] 98 % of control | [11] 98 % of control

CC1(CC(=O)NN)OCCO1
inactive: [22] 104 % of control | [23] 102 % of control | [24] 107 % of control

O=NN(CCI)C(=O)NCCI
inactive: dose: 18.75 mg/kg/injection, schedule: Q01DX001 (ip), vehicle: carboxymethylcellulose (CMC) 96 % of control | dose: 37.5 mg/kg/injection, schedule: Q01DX001 (ip), vehicle: carboxymethylcellulose (CMC) 98 % of control | dose: 50.0 mg/kg/injection, schedule: Q01DX001 (ip), vehicle: carboxymethylcellulose (CMC) 96 % of control | dose: 75.0 mg/kg/injection, schedule: Q01DX001 (ip), vehicle: carboxymethylcellulose (CMC) 100 % of control | [4] 103 % of control | [7] 110 % of control

Cc1cc(C(=O)Nc2ccc(NC3=NCCN3)cc2)cc(C(=O)Nc2ccc(NC3=NCCN3)cc2)c1
inactive: dose: 3.0 mg/kg/injection, schedule: Q01DX Z (ip), vehicle: saline 103 % of control | dose: 6.0 mg/kg/injection, schedule: Q01DX Z (ip), vehicle: saline 103 % of control | dose: 12.0 mg/kg/injection, schedule: Q01DX Z (ip), vehicle: saline 100 % of control | dose: 15.0 mg/kg/injection, schedule: Q01DX Z (ip), vehicle: saline 110 % of control
